Experimental data as given in patent US20250090640A1, “METHOD OF IMPROVING THE VIABILITY OF A DENTAL IMPLANT” (priority 2023, published 2025).

Experiments:
[1] = tested on: patients with severe, chronic periodontal disease; conditions: 6-week course of daily injections (20 mcg) from 3 days prior to surgery, with oral calcium and vitamin D; cited from earlier work
OVX rats = tested on: OVX rats; design: species or system Sprague-Dawley rats; conditions: rat, in vivo
Description: In this study, Sprague-Dawley rats were divided into three groups (Table 1) to study the impact of abaloparatide treatment on implant viability in rats in a model that mimics osteoporosis by ovariectomy (OVX).
At four months, rats in the OVX groups were ovariectomized, and bone depletion was allowed to occur for two months. At this point, daily injections of abaloparatide (Abalo) or vehicle (VEH) began 42 days prior to implant surgery and were continued out to 21 days past implant surgery.
As shown in FIGS. 2A-2C, 3A-3F, and 4A-4C, altered bone metabolism in the OVX rats and residual ridge defects complicated implant placement. […] However, abaloparatide did increase bone mass density in the femoral shaft and intact maxillac on the non-extraction side of the jaw (FIGS. 4A and 4B, respectively). With continued reference to FIGS. 4A and 4B, there was a 150% increase in mean BMD in OVX rats treated with ABL versus VEH.

Row | relationship of unexpected healing complications after tooth extraction to treatment (OVX rats) | SMILES | clinical outcomes relative to placebo during the year following periodontal surgery [1]
1 | – | CC[C@H](C)[C@H](NC(=O)[C@H](CCC(=O)O)NC(=O)[C@H](CO)NC(=O)[C@@H](NC(=O)[C@@H](N)CO)C(C)C)C(=O)N[C@@H](CCC(N)=O)C(=O)N[C@@H](CC(C)C)C(=O)N[C@@H](CCSC)C(=O)N[C@@H](Cc1cnc[nH]1)C(=O)N[C@@H](CC(N)=O)C(=O)N[C@@H](CC(C)C)C(=O)NCC(=O)N[C@@H](CCCCN)C(=O)N[C@@H](Cc1cnc[nH]1)C(=O)N[C@@H](CC(C)C)C(=O)N[C@@H](CC(N)=O)C(=O)N[C@@H](CO)C(=O)N[C@@H](CCSC)C(=O)N[C@@H](CCC(=O)O)C(=O)N[C@@H](CCCN=C(N)N)C(=O)N[C@H](C(=O)N[C@@H](CCC(=O)O)C(=O)N[C@@H](Cc1c[nH]c2ccccc12)C(=O)N[C@@H](CC(C)C)C(=O)N[C@@H](CCCN=C(N)N)C(=O)N[C@@H](CCCCN)C(=O)N[C@@H](CCCCN)C(=O)N[C@@H](CC(C)C)C(=O)N[C@@H](CCC(N)=O)C(=O)N[C@@H](CC(=O)O)C(=O)N[C@H](C(=O)N[C@@H](Cc1cnc[nH]1)C(=O)N[C@@H](CC(N)=O)C(=O)N[C@@H](Cc1ccccc1)C(=O)O)C(C)C)C(C)C [Teriparatide] | improved clinical outcomes
2 | no relationship | CC[C@H](C)[C@H](NC(=O)[C@H](CO)NC(=O)[C@H](CCCCN)NC(=O)CNC(=O)[C@H](CCCCN)NC(=O)[C@H](CC(=O)O)NC(=O)[C@H](Cc1cnc[nH]1)NC(=O)[C@H](CC(C)C)NC(=O)[C@H](CC(C)C)NC(=O)[C@H](CCC(N)=O)NC(=O)[C@H](Cc1cnc[nH]1)NC(=O)[C@H](CCC(=O)O)NC(=O)[C@H](CO)NC(=O)[C@@H](NC(=O)[C@H](C)N)C(C)C)C(=O)N[C@@H](CCC(N)=O)C(=O)N[C@@H](CC(=O)O)C(=O)N[C@@H](CC(C)C)C(=O)N[C@@H](CCCNC(=N)N)C(=O)N[C@@H](CCCNC(=N)N)C(=O)N[C@@H](CCCNC(=N)N)C(=O)N[C@@H](CCC(=O)O)C(=O)N[C@@H](CC(C)C)C(=O)N[C@@H](CC(C)C)C(=O)N[C@@H](CCC(=O)O)C(=O)N[C@@H](CCCCN)C(=O)N[C@@H](CC(C)C)C(=O)N[C@@H](CC(C)C)C(=O)NC(C)(C)C(=O)N[C@@H](CCCCN)C(=O)N[C@@H](CC(C)C)C(=O)N[C@@H](Cc1cnc[nH]1)C(=O)N[C@H](C(=O)N[C@@H](C)C(N)=O)[C@@H](C)O [abaloparatide, [Glu^22,25, Leu^23,28,31, Aib^29, Lys^26,30]hPTHrP(1-34)NH2] | –
